Reference: ChEMBL document CHEMBL4184210, “Optimization of novel monobactams with activity against carbapenem-resistant Enterobacteriaceae - Identification of LYS228” (Bioorg Med Chem Lett, 2018)
In brackets after ≈: the same amount, converted by molar mass.

What was measured:
[1] = system: Escherichia coli; assay: Antimicrobial activity against Escherichia coli expressing beta-lactamase KPC-2 by CLSI broth microdilution method; type: functional
[2] = system: Escherichia coli; assay: Antimicrobial activity against Escherichia coli expressing beta-lactamase NDM-1 by CLSI broth microdilution method; type: functional
[3] = Chemical stability in pH 7.4 potassium phosphate buffer assessed as half life for compound hydrolysis at 37 degC by UPLC and mass spectrometry; type: physicochemical
[4] = biological target: T1, GABA A receptor alpha-2/beta-2/gamma-2 (Homo sapiens, UniProt P18507+P47869+P47870); assay: Inhibition of recombinant human GABA A alpha2beta2gamma2 receptor expressed in CHO-K1 cells incubated at room temperature for 15 mins before the GABA addition fluorescence spectrometry; type: cell-based
T1 sequence (P47870 whole entry): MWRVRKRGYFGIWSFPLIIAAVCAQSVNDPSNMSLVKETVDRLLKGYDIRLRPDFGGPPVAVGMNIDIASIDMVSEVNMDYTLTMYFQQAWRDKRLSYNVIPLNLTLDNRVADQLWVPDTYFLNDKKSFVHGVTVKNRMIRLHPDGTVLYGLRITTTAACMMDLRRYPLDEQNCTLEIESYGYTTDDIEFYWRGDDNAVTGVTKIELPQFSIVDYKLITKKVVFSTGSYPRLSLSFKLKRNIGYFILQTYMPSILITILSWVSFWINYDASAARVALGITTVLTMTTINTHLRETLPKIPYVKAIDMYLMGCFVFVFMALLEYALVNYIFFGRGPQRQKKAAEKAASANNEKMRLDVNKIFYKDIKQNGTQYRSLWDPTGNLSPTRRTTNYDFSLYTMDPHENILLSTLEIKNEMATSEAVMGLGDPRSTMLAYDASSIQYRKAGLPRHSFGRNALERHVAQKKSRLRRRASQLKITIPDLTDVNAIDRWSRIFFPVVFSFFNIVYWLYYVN
T1 sequence (P18507 whole entry): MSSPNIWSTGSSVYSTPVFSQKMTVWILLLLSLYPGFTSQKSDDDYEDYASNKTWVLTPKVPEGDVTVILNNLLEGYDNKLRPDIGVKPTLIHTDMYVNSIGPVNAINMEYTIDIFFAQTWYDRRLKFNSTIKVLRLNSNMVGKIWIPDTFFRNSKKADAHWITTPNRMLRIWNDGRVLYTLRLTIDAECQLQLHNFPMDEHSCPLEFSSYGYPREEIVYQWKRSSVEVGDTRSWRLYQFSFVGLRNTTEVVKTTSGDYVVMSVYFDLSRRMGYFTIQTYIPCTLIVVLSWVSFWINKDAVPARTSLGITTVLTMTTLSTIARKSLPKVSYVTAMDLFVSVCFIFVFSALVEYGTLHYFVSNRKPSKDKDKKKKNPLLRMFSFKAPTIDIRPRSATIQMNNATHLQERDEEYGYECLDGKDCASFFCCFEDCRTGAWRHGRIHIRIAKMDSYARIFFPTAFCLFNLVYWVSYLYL
T1 sequence (P47869 whole entry): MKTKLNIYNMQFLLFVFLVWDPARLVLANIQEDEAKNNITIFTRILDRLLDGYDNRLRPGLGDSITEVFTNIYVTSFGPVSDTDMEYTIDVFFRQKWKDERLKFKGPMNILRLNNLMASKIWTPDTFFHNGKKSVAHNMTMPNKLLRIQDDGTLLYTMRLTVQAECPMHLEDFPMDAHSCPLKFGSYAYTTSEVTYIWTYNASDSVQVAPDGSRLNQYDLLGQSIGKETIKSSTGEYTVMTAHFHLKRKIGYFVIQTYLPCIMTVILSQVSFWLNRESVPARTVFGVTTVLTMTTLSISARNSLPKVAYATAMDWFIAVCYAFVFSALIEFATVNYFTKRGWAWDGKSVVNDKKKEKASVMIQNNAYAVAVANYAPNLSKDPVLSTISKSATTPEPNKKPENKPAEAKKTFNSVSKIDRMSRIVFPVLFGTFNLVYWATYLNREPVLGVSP

[5] = system: Escherichia coli; assay: microbe, parasite or virus in culture
Description: Antimicrobial activity against wild type Escherichia coli by CLSI broth microdilution method

[6] = system: Escherichia coli; assay: microbe, parasite or virus in culture; remark: listed apart in the source
Description: Antimicrobial activity against Escherichia coli expressing beta-lactamase CTXM-3 by CLSI broth microdilution method

[7] = system: Escherichia coli; assay: microbe, parasite or virus in culture; remark: listed apart in the source
Description: Antimicrobial activity against Escherichia coli expressing beta-lactamase CTXM-15 by CLSI broth microdilution method

[8] = system: Escherichia coli; assay: microbe, parasite or virus in culture; remark: listed apart in the source
Description: Antimicrobial activity against Escherichia coli expressing beta-lactamase GES-1 by CLSI broth microdilution method

[9] = system: Escherichia coli; assay: microbe, parasite or virus in culture; remark: listed apart in the source
Description: Antimicrobial activity against Escherichia coli expressing beta-lactamase KPC-4 by CLSI broth microdilution method

[10] = system: Escherichia coli; assay: microbe, parasite or virus in culture; remark: listed apart in the source
Description: Antimicrobial activity against Escherichia coli expressing beta-lactamase PER-1 by CLSI broth microdilution method

[11] = system: Escherichia coli; assay: microbe, parasite or virus in culture; remark: listed apart in the source
Description: Antimicrobial activity against Escherichia coli expressing beta-lactamase PER-2 by CLSI broth microdilution method

[12] = system: Escherichia coli; assay: microbe, parasite or virus in culture; remark: listed apart in the source
Description: Antimicrobial activity against Escherichia coli expressing beta-lactamase VEB-4 by CLSI broth microdilution method

[13] = system: Escherichia coli; assay: microbe, parasite or virus in culture; remark: listed apart in the source
Description: Antimicrobial activity against Escherichia coli expressing beta-lactamase VEB-7 by CLSI broth microdilution method

[14] = system: Escherichia coli; assay: microbe, parasite or virus in culture; remark: listed apart in the source
Description: Antimicrobial activity against Escherichia coli expressing beta-lactamase TEM-24 by CLSI broth microdilution method

[15] = system: Escherichia coli; assay: microbe, parasite or virus in culture; remark: listed apart in the source
Description: Antimicrobial activity against Escherichia coli expressing beta-lactamase TEM-47 by CLSI broth microdilution method

[16] = system: Escherichia coli; assay: microbe, parasite or virus in culture; remark: listed apart in the source
Description: Antimicrobial activity against Escherichia coli expressing beta-lactamase TEM-121 by CLSI broth microdilution method

[17] = system: Escherichia coli; assay: microbe, parasite or virus in culture; remark: listed apart in the source
Description: Antimicrobial activity against Escherichia coli expressing beta-lactamase IMP-1 by CLSI broth microdilution method

[18] = system: Escherichia coli; assay: microbe, parasite or virus in culture; remark: listed apart in the source
Description: Antimicrobial activity against Escherichia coli expressing beta-lactamase SPM-1 by CLSI broth microdilution method

[19] = system: Escherichia coli; assay: microbe, parasite or virus in culture; remark: listed apart in the source
Description: Antimicrobial activity against Escherichia coli expressing beta-lactamase AmpC by CLSI broth microdilution method

[20] = system: Escherichia coli; assay: microbe, parasite or virus in culture; remark: listed apart in the source
Description: Antimicrobial activity against Escherichia coli expressing beta-lactamase CMY-2 by CLSI broth microdilution method

[21] = system: Escherichia coli; assay: microbe, parasite or virus in culture; remark: listed apart in the source
Description: Antimicrobial activity against Escherichia coli expressing beta-lactamase MIR-1 by CLSI broth microdilution method

[22] = system: Escherichia coli; assay: microbe, parasite or virus in culture; remark: listed apart in the source
Description: Antimicrobial activity against Escherichia coli expressing beta-lactamase Oxa-10 by CLSI broth microdilution method

[23] = system: Escherichia coli; assay: microbe, parasite or virus in culture; remark: listed apart in the source
Description: Antimicrobial activity against Escherichia coli expressing beta-lactamase Oxa-40 by CLSI broth microdilution method

[24] = system: Escherichia coli; assay: microbe, parasite or virus in culture; remark: listed apart in the source
Description: Antimicrobial activity against Escherichia coli expressing beta-lactamase Oxa-48 by CLSI broth microdilution method

[25] = system: Escherichia coli; assay: microbe, parasite or virus in culture; remark: listed apart in the source
Description: Antimicrobial activity against Escherichia coli expressing beta-lactamase Oxa-51 by CLSI broth microdilution method

[26] = system: Escherichia coli; assay: microbe, parasite or virus in culture; remark: listed apart in the source
Description: Antimicrobial activity against Escherichia coli expressing beta-lactamase Oxa-146 by CLSI broth microdilution method

[27] = system: Escherichia coli; assay: microbe, parasite or virus in culture; remark: listed apart in the source
Description: Antimicrobial activity against Escherichia coli expressing beta-lactamase Oxa-160 by CLSI broth microdilution method

[28] = system: Escherichia coli; assay: microbe, parasite or virus in culture; remark: listed apart in the source
Description: Antimicrobial activity against Escherichia coli expressing beta-lactamase Oxa-225 by CLSI broth microdilution method

[29] = system: Pseudomonas aeruginosa; assay: Antimicrobial activity against Pseudomonas aeruginosa ATCC 27853 by CLSI broth microdilution method; type: functional
[30] = system: Pseudomonas aeruginosa; assay: Antimicrobial activity against Pseudomonas aeruginosa expressing delta-mexB/delta-mexXY/delta-mexCD and delta-ampC mutant by CLSI broth microdilution method; type: functional
[31] = system: Pseudomonas aeruginosa; assay: Antimicrobial activity against Pseudomonas aeruginosa expressing delta-mexB/mexXY/delta-ampDh2/ delta-ampD by CLSI broth microdilution method; type: functional

SMILES: N=C(N)NCc1cn(C[C@@H]2[C@H](NC(=O)/C(=N\OC3(C(=O)O)CC3)c3csc(N)n3)C(=O)N2S(=O)(=O)O)nn1 (stereo in doubt)
- MIC [1]: 0.125 µg/mL (≈ 0.219 µM)
- MIC [2]: 0.125 µg/mL (≈ 0.219 µM)
- half-life [3]: 3.71 days
- IC50 [4]: 890 µM
- MIC [5]: 0.125 µg/mL (≈ 0.219 µM)
- MIC [6]: 0.25 µg/mL (≈ 0.437 µM)
- MIC [7]: 0.125 µg/mL (≈ 0.219 µM)
- MIC [8]: 0.06 µg/mL (≈ 0.105 µM)
- MIC [9]: 2 µg/mL (≈ 3.5 µM)
- MIC [10]: 32 µg/mL (≈ 56 µM)
- MIC [11]: > 64 µg/mL
- MIC [12]: 8 µg/mL (≈ 14 µM)
- MIC [13]: 32 µg/mL (≈ 56 µM)
- MIC [14]: 0.25 µg/mL (≈ 0.437 µM)
- MIC [15]: 0.25 µg/mL (≈ 0.437 µM)
- MIC [16]: 1 µg/mL (≈ 1.75 µM)
- MIC [17]: 0.125 µg/mL (≈ 0.219 µM)
- MIC [18]: 0.125 µg/mL (≈ 0.219 µM)
- MIC [19]: 0.125 µg/mL (≈ 0.219 µM)
- MIC [20]: 0.25 µg/mL (≈ 0.437 µM)
- MIC [21]: 0.5 µg/mL (≈ 0.875 µM)
- MIC [22]: 0.25 µg/mL (≈ 0.437 µM)
- MIC [23]: 0.125 µg/mL (≈ 0.219 µM)
- MIC [24]: 0.125 µg/mL (≈ 0.219 µM)
- MIC [25]: 0.25 µg/mL (≈ 0.437 µM)
- MIC [26]: 1 µg/mL (≈ 1.75 µM)
- MIC [27]: 0.25 µg/mL (≈ 0.437 µM)
- MIC [28]: 0.25 µg/mL (≈ 0.437 µM)

SMILES: Nc1nc(/C(=N/OC2(C(=O)O)CC2)C(=O)N[C@@H]2C(=O)N(S(=O)(=O)O)[C@@H]2CN2CCOC2=O)cs1 (stereo in doubt) [ANCREMONAM]
- MIC [1]: 0.125 µg/mL (≈ 0.241 µM)
- MIC [2]: 0.125 µg/mL (≈ 0.241 µM)
- half-life [3]: 16.7 days
- MIC [29]: 32 µg/mL (≈ 61.7 µM)
- MIC [30]: 1 µg/mL (≈ 1.93 µM)
- MIC [31]: 64 µg/mL (≈ 123 µM)
- IC50 [4]: > 2400 µM
- MIC [5]: 0.125 µg/mL (≈ 0.241 µM)
- MIC [6]: 0.125 µg/mL (≈ 0.241 µM)
- MIC [7]: 0.125 µg/mL (≈ 0.241 µM)
- MIC [8]: 0.125 µg/mL (≈ 0.241 µM)
- MIC [9]: 0.5 µg/mL (≈ 0.964 µM)
- MIC [10]: 64 µg/mL (≈ 123 µM)
- MIC [11]: 128 µg/mL (≈ 247 µM)
- MIC [12]: 8 µg/mL (≈ 15.4 µM)
- MIC [13]: 16 µg/mL (≈ 30.9 µM)
- MIC [14]: 0.5 µg/mL (≈ 0.964 µM)
- MIC [15]: 0.125 µg/mL (≈ 0.241 µM)
- MIC [16]: 0.25 µg/mL (≈ 0.482 µM)
- MIC [17]: 0.125 µg/mL (≈ 0.241 µM)
- MIC [18]: 0.125 µg/mL (≈ 0.241 µM)
- MIC [19]: 0.25 µg/mL (≈ 0.482 µM)
- MIC [20]: 0.25 µg/mL (≈ 0.482 µM)
- MIC [21]: 0.125 µg/mL (≈ 0.241 µM)
- MIC [22]: 0.125 µg/mL (≈ 0.241 µM)
- MIC [23]: 0.125 µg/mL (≈ 0.241 µM)
- MIC [24]: 0.125 µg/mL (≈ 0.241 µM)
- MIC [25]: 0.125 µg/mL (≈ 0.241 µM)
- MIC [26]: 2 µg/mL (≈ 3.86 µM)
- MIC [27]: 1 µg/mL (≈ 1.93 µM)
- MIC [28]: 1 µg/mL (≈ 1.93 µM)
